# Several values for one entry are separate records, joined by “and”; a condition that tells them apart may be missing. Equal entries are not always repeated. Where two headings read alike, the source gives them in different places.
# Assays:
# Assay type in all cases: biochemical
# HDAC1-CoREST = molecular target: T1, HDAC1-CoREST (Homo sapiens, UniProt Q13547); assay: fluorescent HDAC assay (Boc-(Ac)Lys-AMC), HDAC1-CoREST complex; conditions: read-out: IC50 HDAC1-CoREST
# T1 construct: We used HDAC complexes with the most components that could be stably expressed, with full-length proteins where feasible; made in house; host or cells: HEK293F
# Procedure: (§1) Class I HDAC complexes were expressed and purified from mammalian HEK293F cells. […] We explored seven different HDAC complexes: five with HDAC1 (CoREST, MIER1, MiDAC, NuRD, and RERE); one with HDAC2 (CoREST), and one with HDAC3 (SMRT). Complexes ranged from having two components (HDAC1-RERE) to four components (HDAC1-NuRD) (Figure A, Table S1). […]
# (§2) was resuspended in 4 mL of cleavage buffer. 30 -40 µL of 1.2 mg/mL Tobacco etch virus ( TEV) protease was added to the mixture and incubated overnight at 4 °C. After T EV cleavage, the protein was concentrated to 500 µL using the 4 mL Amicon®Ultra centrifugal fi lter (Merck Millipore) with a membrane nominal molecular weight cut off of 10 kDa. The concentrated protein was then filtered through a 0.22 µm centrifugal filter (Merck Millipore).
# (§3) The complexes were purified on the AKTA purifier system (GE Healthcare) using either Superose 6 (10/300 GL) or Superdex 200 (10/300 GL) columns (GE Healthcare), which were equilibrated in the […]
# (§4) Fractions were collected in a 96 -well plate (0.5 mL per fraction). 10 µL of sample from the fraction s, […]
# (§5) analysis by SDS-PAGE gel. […]
# (§6) the bottom of gel. SeeBlue Plus2 pre-stained marker (Invitrogen) was used as the molecular weight marker and the gel was stained using Instant Blue Coomassie Stain (Expedeon). Fractions containing purified protein complex were concentrated using the 0.5 mL Amicon Ultra centrifugal filter (Merck Millipore) with a membrane nominal molecular weight cut off of 10 kDa. Concentration of the protein was determined using a protein assay dye reagent (Bio-Rad). 200 µL of the reagent was diluted in 800 µL of ddH2O and used as a reagent blank. 2 µL of the protein sample was then added into the mixture […]
# (§7) The concentration of the protein sample in mg/mL was then calculated by multiplying by ‘17’, which represents a factor calculated from a BSA standard curve. […]
# (§8) before being transferred to a freezer at −80 °C.
# (§9) HDAC activity and inhibition experiments against class I HDAC complexes were carried out using a […]
# (§10) final reaction volume of 50 μL. 100 μM of Boc - (Ac)Lys -AMC was used as a substrate in each well.
# (§11) All determinations were performed in triplicate. The inhibitors were dissolved at 50 mM in DMSO, and then further diluted with 10% DMSO HDAC assay buffer (10% DMSO, 50 mM Tris pH 7.5, 50 mM NaCl, 0.1 mg/mL BSA) to micromo lar concentrations. Serial dilutions of compounds were then carried out using 10% DMSO HDAC assay buffer to afford a range of concentrations. 10 μL of each of these […]
# (§12) nM final concentration ) dissolved in HDAC assay buffer (50 mM Tris pH 7.5, 50 mM NaCl, 0.1 mg/mL BSA). For the inhibition experiments with inositol phosphates, HDAC complex was pre -incubated with inositol hexaphosphate (100 µM final concentration ) for 30 minutes at room temperature. The HDAC […]
# (§13) complex and inhibitor were then incubated at 20 °C, 100 RPM for 2 hours . After incubation, 10 μL of the Boc -(Ac)Lys -AMC substrate, dissolved in HDAC assay buffer, was added to each well. The plate was incubate d at 30 °C, 100 RPM for 1 hour, followed by addition of 50 μL of a developer buffer (50 mM Tris pH 7.5, 100 mM NaCl, 10 mg/mL trypsin) to quench the reaction. The reaction was allowed to develop for 10 minutes at 30 °C, 100 RPM. Fluorescence intensity was determined with the Victor […]
# (§14) IC50 values were calculated using GraphPad
# HDAC2-CoREST = molecular target: T2, HDAC2-CoREST (Homo sapiens, UniProt Q92769); assay: fluorescent HDAC assay (Boc-(Ac)Lys-AMC), HDAC2-CoREST complex
# T2 construct: We used HDAC complexes with the most components that could be stably expressed, with full-length proteins where feasible; made in house; host or cells: HEK293F
# Procedure: as §1, §2, §3, §4, §5, §6, §7, §8, §9, §10, §11
# (§15) nM final concentration ) dissolved in HDAC assay buffer (50 mM Tris pH 7.5, 50 mM NaCl, 0.1 mg/mL BSA). […]
# (§16) complex and inhibitor were then incubated at 20 °C, 100 RPM for 2 hours . […] Fluorescence intensity was determined with the Victor […]
# as §14
# HDAC3-SMRT = molecular target: T3, HDAC3-SMRT (Homo sapiens, UniProt O15379); assay: fluorescent HDAC assay (Boc-(Ac)Lys-AMC), HDAC3-SMRT complex
# T3 construct: We used HDAC complexes with the most components that could be stably expressed, with full-length proteins where feasible; made in house; host or cells: HEK293F
# Procedure: as §1, §2, §3, §4, §5, §6, §7, §8, §9, §10, §11, §15, §16, §14
# HDAC1-MIER1 = molecular target: T4, HDAC1-MIER1 (Homo sapiens, UniProt Q13547); assay: fluorescent HDAC assay (Boc-(Ac)Lys-AMC), HDAC1-MIER1 complex; conditions: read-out: IC50 HDAC1-MIER1
# T4 construct: We used HDAC complexes with the most components that could be stably expressed, with full-length proteins where feasible; made in house; host or cells: HEK293F
# Procedure: as §1, §2, §3, §4, §5, §6, §7, §8, §9, §10, §11, §12, §13, §14
# HDAC1-MiDAC = molecular target: T5, HDAC1-MiDAC (Homo sapiens, UniProt Q13547); assay: fluorescent HDAC assay (Boc-(Ac)Lys-AMC), HDAC1-MiDAC complex; conditions: read-out: IC50 HDAC1-MiDAC
# T5 construct: We used HDAC complexes with the most components that could be stably expressed, with full-length proteins where feasible; made in house; host or cells: HEK293F
# Procedure: as §1, §2, §3, §4, §5, §6, §7, §8, §9, §10, §11, §12, §13, §14
# HDAC1-NuRD = molecular target: T6, HDAC1-NuRD (Homo sapiens, UniProt Q13547); assay: fluorescent HDAC assay (Boc-(Ac)Lys-AMC), HDAC1-NuRD complex; conditions: for IC50: read-out: IC50 HDAC1-NuRD
# T6 construct: We used HDAC complexes with the most components that could be stably expressed, with full-length proteins where feasible; made in house; host or cells: HEK293F
# Procedure: as §1, §2, §3, §4, §5, §6, §7, §8, §9, §10, §11, §12, §13, §14
# HDAC1-RERE = molecular target: T7, HDAC1-RERE (Homo sapiens, UniProt Q13547); assay: fluorescent HDAC assay (Boc-(Ac)Lys-AMC), HDAC1-RERE complex; conditions: read-out: IC50 HDAC1-RERE
# T7 construct: We used HDAC complexes with the most components that could be stably expressed, with full-length proteins where feasible; made in house; host or cells: HEK293F
# Procedure: as §1, §2, §3, §4, §5, §6, §7, §8, §9, §10, §11, §12, §13, §14
# class I HDAC complexes = assay: fluorescent HDAC assay, summaries over groups of complexes
# Procedure: as §1, §2
# The complexes were purified on the AKTA purifier system (GE Healthcare) using either Superose 6 (10/300 GL) or Superdex 200 (10/300 GL) columns (GE Healthcare), which were equilibrated in the gel filtration buffer (25 mM Tris/Cl pH 7.5, 50 mM KOAc, 0.5 mM TCEP) before sample loading.
# as §4, §5, §6, §7, §8, §9, §10, §11, §12, §13, §14
# T3 sequence (O15379 whole entry): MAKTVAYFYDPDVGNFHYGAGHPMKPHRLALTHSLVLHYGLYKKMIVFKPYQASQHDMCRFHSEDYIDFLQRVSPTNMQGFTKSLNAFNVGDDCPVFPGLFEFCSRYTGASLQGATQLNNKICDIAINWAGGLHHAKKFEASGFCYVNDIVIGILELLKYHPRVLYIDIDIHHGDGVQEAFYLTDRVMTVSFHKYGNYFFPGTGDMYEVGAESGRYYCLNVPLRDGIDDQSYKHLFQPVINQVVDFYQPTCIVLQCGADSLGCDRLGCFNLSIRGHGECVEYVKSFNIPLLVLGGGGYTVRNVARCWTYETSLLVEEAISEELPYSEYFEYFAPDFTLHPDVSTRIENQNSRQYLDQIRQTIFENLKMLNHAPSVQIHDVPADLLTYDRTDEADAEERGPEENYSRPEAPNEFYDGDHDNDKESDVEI
# T3 sequence (Q13227+Q9Y618 fused partner): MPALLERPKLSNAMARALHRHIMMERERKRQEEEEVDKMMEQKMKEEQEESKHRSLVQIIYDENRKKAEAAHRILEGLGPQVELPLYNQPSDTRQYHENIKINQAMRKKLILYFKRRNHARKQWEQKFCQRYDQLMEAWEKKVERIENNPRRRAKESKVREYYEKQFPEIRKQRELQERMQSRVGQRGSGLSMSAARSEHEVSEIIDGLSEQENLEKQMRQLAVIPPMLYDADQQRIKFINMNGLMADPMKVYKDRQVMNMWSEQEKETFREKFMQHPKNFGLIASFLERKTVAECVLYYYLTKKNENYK
# T3 sequence (O60907 with tags, fused parts or gaps H74A/F77A/I81A partner): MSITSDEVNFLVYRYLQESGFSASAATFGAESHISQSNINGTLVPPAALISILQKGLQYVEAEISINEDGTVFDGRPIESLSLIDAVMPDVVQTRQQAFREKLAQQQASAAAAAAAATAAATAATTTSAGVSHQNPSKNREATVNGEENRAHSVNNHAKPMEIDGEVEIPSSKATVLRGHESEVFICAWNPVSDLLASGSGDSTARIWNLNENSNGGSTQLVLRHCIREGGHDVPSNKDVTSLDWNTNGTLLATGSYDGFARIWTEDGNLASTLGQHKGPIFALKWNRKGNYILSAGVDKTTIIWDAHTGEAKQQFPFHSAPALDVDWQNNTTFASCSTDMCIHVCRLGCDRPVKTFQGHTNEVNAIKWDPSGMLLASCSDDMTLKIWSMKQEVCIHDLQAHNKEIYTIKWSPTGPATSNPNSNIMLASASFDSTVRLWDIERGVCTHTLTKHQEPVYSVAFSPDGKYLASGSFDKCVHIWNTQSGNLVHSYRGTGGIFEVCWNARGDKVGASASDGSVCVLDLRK
# T2 sequence (Q92769 whole entry, other chains not shown): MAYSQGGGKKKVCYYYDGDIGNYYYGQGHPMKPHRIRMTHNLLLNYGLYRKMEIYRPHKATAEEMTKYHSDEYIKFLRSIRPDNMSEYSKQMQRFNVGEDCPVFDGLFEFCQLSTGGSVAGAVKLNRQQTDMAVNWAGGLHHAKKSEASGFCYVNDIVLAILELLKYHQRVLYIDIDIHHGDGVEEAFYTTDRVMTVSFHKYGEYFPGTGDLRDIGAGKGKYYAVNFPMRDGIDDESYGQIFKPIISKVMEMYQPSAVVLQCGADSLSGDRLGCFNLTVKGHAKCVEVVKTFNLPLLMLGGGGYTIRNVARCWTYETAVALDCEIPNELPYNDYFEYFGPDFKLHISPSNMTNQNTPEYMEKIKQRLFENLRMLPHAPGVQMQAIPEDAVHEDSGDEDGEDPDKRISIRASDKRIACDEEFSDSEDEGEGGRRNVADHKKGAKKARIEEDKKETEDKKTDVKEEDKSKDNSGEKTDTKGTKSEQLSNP
# T2 sequence (Q9UKL0 86-485 partner limits assumed, other chains not shown): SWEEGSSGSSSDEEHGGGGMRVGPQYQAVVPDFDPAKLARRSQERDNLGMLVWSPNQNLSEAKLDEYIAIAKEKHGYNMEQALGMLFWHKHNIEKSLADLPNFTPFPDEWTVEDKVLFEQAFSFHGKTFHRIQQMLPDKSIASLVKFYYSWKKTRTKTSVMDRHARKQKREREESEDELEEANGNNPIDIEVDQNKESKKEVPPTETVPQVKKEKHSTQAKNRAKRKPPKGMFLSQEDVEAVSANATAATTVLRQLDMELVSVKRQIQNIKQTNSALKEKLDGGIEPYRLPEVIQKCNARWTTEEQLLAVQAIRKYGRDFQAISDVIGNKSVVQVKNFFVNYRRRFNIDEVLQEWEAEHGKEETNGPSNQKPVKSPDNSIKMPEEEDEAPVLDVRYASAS
# T6 sequence (Q13547 whole entry): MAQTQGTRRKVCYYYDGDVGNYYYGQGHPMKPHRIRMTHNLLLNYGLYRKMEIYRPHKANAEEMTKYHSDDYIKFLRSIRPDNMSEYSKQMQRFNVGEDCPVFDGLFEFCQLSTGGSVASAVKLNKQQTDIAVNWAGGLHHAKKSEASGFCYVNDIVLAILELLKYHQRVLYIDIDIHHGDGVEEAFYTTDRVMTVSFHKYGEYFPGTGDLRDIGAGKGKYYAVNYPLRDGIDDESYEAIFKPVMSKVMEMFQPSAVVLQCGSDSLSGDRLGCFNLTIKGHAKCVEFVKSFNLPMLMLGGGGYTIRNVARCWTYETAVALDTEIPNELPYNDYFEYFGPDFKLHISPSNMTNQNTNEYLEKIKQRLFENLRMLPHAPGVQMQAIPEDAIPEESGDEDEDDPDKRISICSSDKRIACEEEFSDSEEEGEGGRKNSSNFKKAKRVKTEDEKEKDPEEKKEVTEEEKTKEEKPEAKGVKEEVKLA
# T6 sequence (Q13330 whole entry partner): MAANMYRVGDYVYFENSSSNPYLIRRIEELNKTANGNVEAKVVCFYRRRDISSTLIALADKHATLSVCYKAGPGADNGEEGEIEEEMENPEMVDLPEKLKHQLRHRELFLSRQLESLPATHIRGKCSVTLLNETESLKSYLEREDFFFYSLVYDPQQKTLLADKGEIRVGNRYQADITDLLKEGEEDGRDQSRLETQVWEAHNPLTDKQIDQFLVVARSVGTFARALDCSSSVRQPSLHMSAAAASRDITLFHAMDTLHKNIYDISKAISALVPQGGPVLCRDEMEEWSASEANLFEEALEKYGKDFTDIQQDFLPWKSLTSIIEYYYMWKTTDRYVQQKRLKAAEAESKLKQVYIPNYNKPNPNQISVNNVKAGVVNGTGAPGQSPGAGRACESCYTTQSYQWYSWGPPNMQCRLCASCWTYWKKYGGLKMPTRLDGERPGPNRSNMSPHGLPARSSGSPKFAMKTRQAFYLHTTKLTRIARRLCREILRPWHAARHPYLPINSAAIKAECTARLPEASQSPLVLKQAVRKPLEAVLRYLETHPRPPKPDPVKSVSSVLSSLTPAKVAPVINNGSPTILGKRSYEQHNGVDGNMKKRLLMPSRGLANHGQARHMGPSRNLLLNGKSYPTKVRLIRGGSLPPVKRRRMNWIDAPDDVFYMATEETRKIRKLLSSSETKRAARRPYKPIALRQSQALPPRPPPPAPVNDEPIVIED
# T6 sequence (Q9UBB5 145-411 partner limits assumed): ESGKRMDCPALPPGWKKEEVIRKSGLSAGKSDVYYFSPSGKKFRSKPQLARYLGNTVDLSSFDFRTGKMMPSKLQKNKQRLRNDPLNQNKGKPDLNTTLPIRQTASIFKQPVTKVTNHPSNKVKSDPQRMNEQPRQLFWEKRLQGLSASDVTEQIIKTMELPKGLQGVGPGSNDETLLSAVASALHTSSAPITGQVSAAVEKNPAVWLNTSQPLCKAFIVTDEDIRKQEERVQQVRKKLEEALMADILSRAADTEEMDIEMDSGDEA
# T6 sequence (Q09028 whole entry partner): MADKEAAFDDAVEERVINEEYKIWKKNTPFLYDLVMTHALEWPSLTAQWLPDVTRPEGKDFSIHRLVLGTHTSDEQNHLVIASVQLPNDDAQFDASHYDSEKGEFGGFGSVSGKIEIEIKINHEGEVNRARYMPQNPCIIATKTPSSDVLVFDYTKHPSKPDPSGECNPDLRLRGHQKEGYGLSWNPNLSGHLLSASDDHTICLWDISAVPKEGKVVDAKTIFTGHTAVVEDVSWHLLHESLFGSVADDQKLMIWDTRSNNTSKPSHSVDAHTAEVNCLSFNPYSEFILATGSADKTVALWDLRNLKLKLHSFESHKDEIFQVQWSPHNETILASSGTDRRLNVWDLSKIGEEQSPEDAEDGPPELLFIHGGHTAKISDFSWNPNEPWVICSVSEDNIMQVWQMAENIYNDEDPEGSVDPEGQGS
# T6 sequence (Q16576 whole entry partner): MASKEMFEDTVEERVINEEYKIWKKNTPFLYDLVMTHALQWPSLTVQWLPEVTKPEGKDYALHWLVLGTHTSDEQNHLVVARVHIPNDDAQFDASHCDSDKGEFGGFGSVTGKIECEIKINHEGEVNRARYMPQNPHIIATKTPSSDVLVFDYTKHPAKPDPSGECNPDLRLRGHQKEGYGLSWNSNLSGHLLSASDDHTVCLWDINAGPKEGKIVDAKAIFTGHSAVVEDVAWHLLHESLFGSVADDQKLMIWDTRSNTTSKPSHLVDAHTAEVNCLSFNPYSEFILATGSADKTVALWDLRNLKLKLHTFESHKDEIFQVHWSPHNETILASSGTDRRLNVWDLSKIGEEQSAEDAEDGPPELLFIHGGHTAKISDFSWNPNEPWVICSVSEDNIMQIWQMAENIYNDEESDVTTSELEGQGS
# T1 sequence (Q13547 whole entry, other chains not shown): as the sequence (Q13547 whole entry) above
# T1 sequence (Q9UKL0 86-485 partner limits assumed, other chains not shown): as the sequence (Q9UKL0 86-485 partner limits assumed, other chains not shown) above
IC50 (HDAC1-CoREST; +IP6 (100 μM InsP6)) [nM],IC50 (HDAC1-CoREST; -IP6) [nM],IC50 (HDAC2-CoREST; +IP6 (100 μM InsP6)) [nM],IC50 (HDAC2-CoREST; -IP6),IC50 (HDAC3-SMRT; +IP6 (100 μM InsP6)) [nM],IC50 (HDAC3-SMRT; -IP6) [nM],IC50 (HDAC1-MIER1; +IP6 (100 μM InsP6)) [nM],IC50 (HDAC1-MIER1; -IP6) [nM],IC50 (HDAC1-MiDAC; +IP6 (100 μM InsP6)) [nM],IC50 (HDAC1-MiDAC; -IP6) [nM],IC50 (HDAC1-NuRD; +IP6 (100 μM InsP6)) [nM],IC50 (HDAC1-NuRD; -IP6),IC50 (HDAC1-RERE; +IP6 (100 μM InsP6)) [nM],IC50 (HDAC1-RERE; -IP6) [nM],IC50 HDAC1-NuRD (HDAC1-NuRD; +IP6 (100 μM InsP6)),IC50 HDAC1-NuRD (HDAC1-NuRD; -IP6),"increase in IC50 with InsP6 against HDAC1/2-CoREST, HDAC1-MIER1 and HDAC1-MiDAC (class I HDAC complexes; 100 μM InsP6 vs none)",SMILES,"effect on intrinsic HDAC activity of all complexes (class I HDAC complexes; complexes at 12.5 nM, Boc-Lys-(Ac)-AMC substrate)",decrease of inhibition of complexes containing HDAC1/2 with InsP6 (class I HDAC complexes; 100 μM InsP6 vs none) [fold]
860 ± 60,130 ± 10,460 ± 30,290 nM and 280 nM,30 ± 4,28 ± 3,1920 ± 110,430 ± 40,2650 ± 230,2480 ± 350,2160 ± 230,4340 nM and 4240 nM,32600 ± 4700,34700 ± 4600,–,–,–,Nc1ccccc1NC(=O)c1cnc(N2CCNCC2)cn1 [Compound 1],–,–
–,–,–,–,–,–,–,–,–,–,–,–,–,–,–,–,–,"O=P(O)(O)O[C@H]1[C@H](OP(=O)(O)O)[C@@H](OP(=O)(O)O)[C@H](OP(=O)(O)O)[C@@H](OP(=O)(O)O)[C@H]1OP(=O)(O)O [InsP6, inositol hexaphosphate]",increased activity,–
8030 ± 510,14 ± 1,26700 ± 3530,52 ± 3 nM,1610 ± 100,100 ± 8,74000 ± 19000,16 ± 2,25200 ± 8840,51 ± 17,–,–,309000 ± 131000,> 300000,N.I.,N.I.,"275–28,600 fold",Nc1ccc(-c2ccncc2)cc1NC(=O)c1cnc(N2CCNCC2)cn1 [Compound 2],–,> 500

# Source: paper PMC12512194, “The Allosteric Regulator Inositol Phosphate Dramatically Affects the Efficacy and Selectivity of Inhibitors for Different HDAC Complexes” (Journal of the American Chemical Society, 2025)
